According to patent US20250195521A1 (Revolution Medicines, Inc., priority 2020, published 2025):
Read-outs that look alike come from different tables or passages of the source.

Experiments:
NRAS G12C = NRAS G12C (Homo sapiens (Human), UniProt P01111+P62937, G12C); assay: Ras-Raf disruption/FRET/MOA assay (BRAF RBD, Cyclophilin A); type: biochemical; conditions: read-out: NRAS G12C FRET data IC50
Experimental: (§1) Compound is present in plate wells as a 10-point 3-fold dilution series starting at a final concentration of 30 μM. After incubation at 25° C. for 3 hours, a mixture of Anti-His Eu—W1024 and anti-GST allophycocyanin is then added to assay sample wells at final concentrations of 10 nM and 50 nM, respectively, and the reaction incubated for an additional 1.5 hours. […] Compounds that facilitate disruption of a Ras: RAF complex are identified as those eliciting a decrease in the TR-FRET ratio relative to DMSO control wells.
(§2) Disruption of B-Raf Ras-Binding Domain (BRAF^RBD) Interaction with K-Ras by Compounds of the Invention (Also Called a FRET Assay or an MOA Assay)
(§3) Note—The following protocol describes a procedure for monitoring disruption of K-Ras G12C (GMP-PNP) binding to BRAF^RBD by a compound of the invention. This protocol may also be executed substituting other Ras proteins or nucleotides.
(§4) The purpose of this biochemical assay was to measure the ability of test compounds to facilitate ternary complex formation between a nucleotide-loaded K-Ras isoform and Cyclophilin A; the resulting ternary complex disrupts binding to a BRAF^RBD construct, inhibiting K-Ras signaling through a RAF effector. Data is reported as IC50 values.
(§5) In assay buffer containing 25 mM HEPES pH 7.3, 0.002% Tween20, 0.1% BSA, 100 mM NaCl and 5 mM MgCl2, tagless Cyclophilin A, His6-K-Ras-GMPPNP, and GST-BRAF^RBD were combined in a 384-well assay plate at final concentrations of 25 μM, 12.5 nM and 50 nM, respectively. Compound was present in plate wells as a 10-point 3-fold dilution series starting at a final concentration of 30 μM. After incubation at 25° C. for 3 hours, a mixture of Anti-His Eu—W1024 and anti-GST allophycocyanin was then added to assay sample wells at final concentrations of 10 nM and 50 nM, respectively, and the reaction incubated for an additional 1.5 hours. […] Compounds that facilitate disruption of a K-Ras: RAF complex were identified as those eliciting a decrease in the TR-FRET ratio relative to DMSO control wells.

KRAS G13D = KRAS G13D (Homo sapiens (Human), UniProt P01116+P62937, G13D); assay: as above; type: biochemical; conditions: read-out: KRAS G13D FRET data IC50
Experimental: as §1, §2, §3, §4, §5

KRAS G12S = KRAS G12S (Homo sapiens (Human), UniProt P01116+P62937, G12S); assay: as above; type: biochemical; conditions: read-out: KRAS G12S FRET IC50
Experimental: as §1, §2, §3, §4, §5

KRAS WT = KRAS WT (Homo sapiens (Human), UniProt P01116+P62937); assay: as above; type: biochemical; conditions: read-out: KRAS WT FRET data IC50
Experimental: as §1, §2, §3, §4, §5

KRAS G12V = KRAS G12V (Homo sapiens (Human), UniProt P01116+P62937, G12V); assay: as above; type: biochemical; conditions: read-out: KRAS G12V FRET IC50
Experimental: as §1, §2, §3, §4, §5

KRAS G12D = KRAS G12D (Homo sapiens (Human), UniProt P01116+P62937, G12D); assay: as above; type: biochemical; conditions: read-out: KRAS G12D FRET IC50
Experimental: as §1, §2, §3, §4, §5

KRAS G13C = KRAS G13C (Homo sapiens (Human), UniProt P01116+P62937, G13C); assay: as above; type: biochemical; conditions: read-out: KRAS G13C FRET IC50
Experimental: as §1, §2, §3, §4, §5

[1] = test system: Capan-1 cells (K-Ras G12V); assay: CellTiter-Glo cell viability, Capan-1; type: cell-based, human; conditions: Homo sapiens, CAPAN-1, 120 h, read-out: Capan-1 Cell Viability IC50
Experimental: Note—The following protocol describes a procedure for monitoring cell viability of K-Ras mutant cancer cell lines in response to a compound of the invention. Other RAS isoforms may be employed, though the number of cells to be seeded will vary based on cell line used.
Test compounds (132.5 nl) were directly dispensed into the assay plates containing cells. […] On day 5, assay plates and their contents were equilibrated to room temperature for approximately 30 minutes. […] Luminescence was measured using the PerkinElmer Enspire. Data were normalized by the following: (Sample signal/Avg. DMSO)*100. The data were fit using a four-parameter logistic fit.

[2] = test system: K-Ras G12C (NCI-H358 cells); assay: Potency assay: pERK in NCI-H358 cells; type: cell-based, human; conditions: Homo sapiens; NCI-H358 cells, 4 hours; read-out: pERK EC50 (H358 KRAS G12C)
Summary of the method: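 Cells plated the day before were exposed for 4 h at 37° C, 5% CO2 to a 10-point, 3-fold DMSO dilution series (10 mM top stock), in duplicate. Phospho-ERK was read by AlphaLISA SureFire Ultra or by In-Cell Western with DRAQ5 DNA stain, and IC50 came from a 4-parameter sigmoidal fit.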

NCI-H358 (K-Ras G12C) = assay: CellTiter-Glo cell viability assay, NCI-H358; type: cell-based, human; conditions: Homo sapiens, NCI-H358, 120 h, 5-day treatment; read-out: H358 Cell Viability assay data (K-Ras G12C, IC50)
Summary of the method: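 Viability is measured as ATP-dependent luminescence (CellTiter-Glo) five days into compound treatment. Responses are normalized to vehicle (DMSO) wells and fitted by four-parameter logistic regression.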

Chain of KRAS G13D (P01116 other isoform, or with tags, fused parts or gaps G13D): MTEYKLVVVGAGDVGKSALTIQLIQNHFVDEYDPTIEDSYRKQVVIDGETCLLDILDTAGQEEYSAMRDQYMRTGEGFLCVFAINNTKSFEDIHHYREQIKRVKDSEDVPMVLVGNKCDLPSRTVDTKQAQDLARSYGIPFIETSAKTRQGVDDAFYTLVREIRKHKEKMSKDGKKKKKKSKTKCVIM
Chain of KRAS G13D (P62937 whole entry): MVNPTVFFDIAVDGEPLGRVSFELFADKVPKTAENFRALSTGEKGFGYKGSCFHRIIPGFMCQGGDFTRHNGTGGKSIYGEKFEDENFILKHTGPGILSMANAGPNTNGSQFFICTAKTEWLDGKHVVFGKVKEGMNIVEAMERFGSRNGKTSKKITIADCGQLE
Chain of KRAS WT (P01116 other isoform, or with tags, fused parts or gaps): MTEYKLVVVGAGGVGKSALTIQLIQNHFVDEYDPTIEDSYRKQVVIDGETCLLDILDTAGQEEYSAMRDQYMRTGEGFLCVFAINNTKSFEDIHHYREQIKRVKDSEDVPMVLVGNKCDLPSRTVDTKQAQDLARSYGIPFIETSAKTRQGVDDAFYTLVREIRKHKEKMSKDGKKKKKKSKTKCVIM
Chain of KRAS WT (P62937 whole entry): as the sequence (P62937 whole entry) above
Chain of KRAS G13C (P01116 other isoform, or with tags, fused parts or gaps G13C): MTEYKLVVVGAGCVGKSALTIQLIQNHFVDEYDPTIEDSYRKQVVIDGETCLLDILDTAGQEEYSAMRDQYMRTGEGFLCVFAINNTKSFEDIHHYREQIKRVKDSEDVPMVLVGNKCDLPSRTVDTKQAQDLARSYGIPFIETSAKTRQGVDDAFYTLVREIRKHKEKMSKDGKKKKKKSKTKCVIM
Chain of KRAS G13C (P62937 whole entry): as the sequence (P62937 whole entry) above
Chain of KRAS G12D (P01116 other isoform, or with tags, fused parts or gaps G12D): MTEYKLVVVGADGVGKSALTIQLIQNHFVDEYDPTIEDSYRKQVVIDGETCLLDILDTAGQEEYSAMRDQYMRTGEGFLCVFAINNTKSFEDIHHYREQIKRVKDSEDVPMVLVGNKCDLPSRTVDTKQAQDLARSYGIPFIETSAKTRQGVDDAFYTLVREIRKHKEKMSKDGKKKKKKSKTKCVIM
Chain of KRAS G12D (P62937 whole entry): as the sequence (P62937 whole entry) above
Chain of NRAS G12C (P01111 whole entry G12C): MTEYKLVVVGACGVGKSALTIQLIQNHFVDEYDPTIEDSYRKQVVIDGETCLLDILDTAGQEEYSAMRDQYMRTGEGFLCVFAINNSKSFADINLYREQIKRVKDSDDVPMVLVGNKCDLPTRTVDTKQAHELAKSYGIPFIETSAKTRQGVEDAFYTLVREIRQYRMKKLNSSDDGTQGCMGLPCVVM
Chain of NRAS G12C (P62937 whole entry): as the sequence (P62937 whole entry) above
Chain of KRAS G12S (P01116 other isoform, or with tags, fused parts or gaps G12S): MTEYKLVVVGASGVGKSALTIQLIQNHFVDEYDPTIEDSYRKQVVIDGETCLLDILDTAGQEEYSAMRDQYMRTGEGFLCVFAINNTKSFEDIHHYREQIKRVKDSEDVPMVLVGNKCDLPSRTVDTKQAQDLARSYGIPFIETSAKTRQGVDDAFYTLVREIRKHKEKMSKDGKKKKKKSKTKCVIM
Chain of KRAS G12S (P62937 whole entry): as the sequence (P62937 whole entry) above
Chain of KRAS G12V (P01116 other isoform, or with tags, fused parts or gaps G12V): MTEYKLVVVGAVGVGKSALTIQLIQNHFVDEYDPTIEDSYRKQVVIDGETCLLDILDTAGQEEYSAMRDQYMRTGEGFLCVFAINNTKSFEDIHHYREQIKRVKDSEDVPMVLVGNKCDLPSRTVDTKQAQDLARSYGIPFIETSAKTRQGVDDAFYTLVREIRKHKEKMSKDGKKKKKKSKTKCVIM
Chain of KRAS G12V (P62937 whole entry): as the sequence (P62937 whole entry) above

Row | SMILES | IC50 (NRAS G12C) [µM] | IC50 (KRAS G13D) [nM] | IC50 (KRAS G12S) [µM] | IC50 (KRAS WT) [µM] | IC50 (KRAS G12V) [µM] | IC50 (KRAS G12D) [µM] | IC50 (KRAS G13C) [µM] | IC50 ([1]; K-Ras G12V, 5-day treatment) [nM] | EC50 [2] [µM] | IC50 [1] [nM] | IC50 (NCI-H358 (K-Ras G12C)) [nM]
1 | CCn1c(-c2cnccc2COC)c2c3cc(ccc31)-c1cc(O)cc(c1)C[C@H](NC(=O)[C@H](C(C)C)N(C)C(=O)[C@H]1CCN(C(C)C)C1)C(=O)N1CCC[C@H](N1)C(=O)OCC(C)(C)C2 [Compound A41] | 0.1 to 1 | 10 to 100 | – | – | – | – | – | – | – | – | –
2 | CCn1c(-c2cccnc2COC)c2c3cc(ccc31)-c1cc(O)cc(c1)C[C@H](NC(=O)[C@H](C(C)C)N(C)C(=O)[C@H](N)CCCNC(=N)N)C(=O)N1CCC[C@H](N1)C(=O)OCC(C)(C)C2 [Compound A48] | – | 100 to 1000 | – | – | – | – | – | – | – | – | –
3 | CCn1c(-c2cccnc2[C@H](C)OC)c2c3cc(ccc31)-c1cc(O)cc(c1)C[C@H](NS(=O)(=O)N1CCC1)C(=O)N1CCC[C@H](N1)C(=O)OCC(C)(C)C2 [Compound A189] | > 10 | > 10000 | > 10 | > 10 | > 10 | > 10 | > 10 | > 10000 | – | – | –
4 | CCn1c(-c2cccnc2[C@H](C)OC)c2c3cc(ccc31)-c1cc(O)cc(c1)C[C@H](NS(=O)(=O)C1CS(=O)(=O)C1)C(=O)N1CCC[C@H](N1)C(=O)OCC(C)(C)C2 [Compound A191] | > 10 | > 10000 | > 10 | > 10 | > 10 | > 10 | > 10 | > 10000 | – | – | –
5 | CCn1c(-c2cccnc2[C@H](C)OC)c2c3cc(ccc31)-c1cc(O)cc(c1)C[C@H](NS(=O)(=O)c1ccc(O)cc1)C(=O)N1CCC[C@H](N1)C(=O)OCC(C)(C)C2 [Compound A195] | > 10 | > 10000 | > 10 | > 10 | > 10 | > 10 | > 10 | > 10000 | – | – | –
6 | CCn1c(-c2cccnc2[C@H](C)OC)c2c3cc(ccc31)-c1cc(O)cc(c1)C[C@H](NS(=O)(=O)C1CC1)C(=O)N1CCC[C@H](N1)C(=O)OCC(C)(C)C2 [Compound A196] | > 10 | > 10000 | > 10 | > 10 | > 10 | > 10 | > 10 | > 10000 | – | – | –
7 | CCn1c(-c2cccnc2[C@H](C)OC)c2c3cc(ccc31)-c1cc(O)cc(c1)C[C@H](NS(=O)(=O)c1cn(C)c(C)n1)C(=O)N1CCC[C@H](N1)C(=O)OCC(C)(C)C2 [Compound A197] | – | > 10000 | > 10 | – | > 10 | > 10 | – | > 10000 | < 5 | – | –
8 | CCn1c(-c2cccnc2[C@H](C)OC)c2c3cc(ccc31)-c1cc(O)cc(c1)C[C@H](NS(=O)(=O)CC1CC1)C(=O)N1CCC[C@H](N1)C(=O)OCC(C)(C)C2 [Compound A200] | – | > 10000 | > 10 | – | > 10 | > 10 | – | – | – | 1000 to 10000 | –
9 | CCn1c(-c2cccnc2[C@H](C)OC)c2c3cc(ccc31)-c1cc(O)cc(c1)C[C@H](NC(=O)[C@H](C(C)C)N(C)C(=O)[C@@H]1CN(C(=O)OC)C[C@@H]1C)C(=O)N1CCC[C@H](N1)C(=O)OCC(C)(C)C2 [Compound A325] | – | 10 to 100 | 0.01 to 0.1 | 0.01 to 0.1 | – | 0.01 to 0.1 | – | 10 to 100 | – | – | –
10 | C=CC(=O)N1CC[C@H](C(=O)N(C)[C@H](C(=O)N[C@H]2Cc3cc(sn3)-c3ccc4c(c3)c(c(-c3cccnc3[C@H](C)OC)n4CC)CC(C)(C)COC(=O)[C@@H]3CCCN(N3)C2=O)C(C)C)C1 [Compound A340] | – | – | – | – | – | – | – | – | < 5 | – | 100 to 1000
11 | CCn1c(-c2cccnc2[C@H](C)OC)c2c3cc(ccc31)-c1cc(O)cc(c1)C[C@H](NC(=O)[C@H](C(C)C)N(C)C(=O)[C@H]1CCN(C(=O)[C@@H]3CCCN3C)C1)C(=O)N1CCC[C@H](N1)C(=O)OCC(C)(C)C2 [Compound A385] | – | – | – | – | – | – | – | – | < 5 | – | < 10
12 | CCn1c(-c2cccnc2[C@H](C)OC)c2c3cc(ccc31)-c1cc(O)cc(c1)C[C@H](NC(=O)[C@H](C(C)C)N(C)C(=O)[C@@H]1CCN(C(=O)OC)[C@@H]1c1ccccc1)C(=O)N1CCC[C@H](N1)C(=O)OCC(C)(C)C2 [Compound A501] | – | 10 to 100 | – | 0.01 to 0.1 | – | 0.01 to 0.1 | – | 100 to 1000 | < 5 | – | –
13 | CCn1c(-c2cccnc2[C@H](C)OC)c2c3cc(ccc31)-c1csc(n1)C[C@H](NC(=O)[C@H](C(C)C)N(C)C(=O)N1CC[C@@H]1CN(C)C)C(=O)N1CCC[C@H](N1)C(=O)OCC(C)(C)C2 [Compound A502] | – | – | – | – | – | – | – | 100 to 1000 | < 5 | – | < 10
14 | CCn1c(-c2cccnc2[C@H](C)OC)c2c3cc(ccc31)-c1csc(n1)C[C@H](NC(=O)[C@H](C(C)C)N(C)C(=O)N1CC3(CC(O)C3)C1)C(=O)N1CCC[C@H](N1)C(=O)OCC(C)(C)C2 [Compound A510] | – | – | – | – | – | – | – | – | < 5 | – | 10 to 100
15 | CCn1c(-c2cccnc2[C@H](C)OC)c2c3cc(ccc31)-c1csc(n1)C[C@H](NC(=O)[C@H](C(C)C)N(C)C(=O)N1CCN3CCOC[C@H]3C1)C(=O)N1CCC[C@H](N1)C(=O)OCC(C)(C)C2 [Compound A548] | – | – | – | – | – | – | – | 10 to 100 | – | – | 100 to 1000
16 | CCn1c(-c2cccnc2[C@H](C)OC)c2c3cc(ccc31)-c1csc(n1)C[C@H](NC(=O)[C@H](C(C)C)N(C)C(=O)N1CC(N(C)S(C)(=O)=O)C1)C(=O)N1CCC[C@H](N1)C(=O)OCC(C)(C)C2 [Compound A550] | – | – | – | – | – | – | – | – | < 5 | – | < 10
